Like-named read-outs stand apart in the source and are kept apart here.
How the values were obtained:
[1] = system: pancreatic cancer MIA PaCa-2 cells; assay: cells; conditions: for EC50 / CC50: Homo sapiens; for EC50: MIA PaCa-2, read-out: EC50, μM MIA PaCa-2; for CC50: MIA PaCa-2, read-out: LC50 MIA PaCa-2
Method: Fig 1 A, Structure of NSC130362. B, Dose response curve of NSC130362 in MIA PaCa-2 cells. Cells were pre-incubated with NSC130362 for 2 h followed by addition of ATO (5 μM) and incubation for an additional 24 h. At the end of the treatment, the ratio of dead cells was determined by a CellTiterGlo reagent.

[2] = system: breast carcinoma HCC1187 cells; assay: cells; assay type: cell-based; conditions: for CC50: Homo sapiens; for Selective cytotoxicity index HCC 1187 ATO: human
Source text: For further analyses, we used compounds that have the selective cytotoxicity index either above 20 (non-toxic compounds) or below 1 (toxic compounds) with the aim to identify targets that are responsible for the selective activity of the identified compounds toward cancer cells. To confirm that the effects of the selected compounds are not only specific to MIA PaCa-2 cells, we evaluated their cytotoxic activities on breast carcinoma HCC1187 cells (Table 1). […] For easy comparison, the data with MIA PaCa-2 cells were also included in Table 1. […] We also noticed that, again with a few exceptions, HCC1187 cells are more resistant to the non-toxic compounds in the presence of ATO as compared to MIA PaCa-2 cells. In contrast, HCC1187 cells are more sensitive to all toxic compounds in the presence of ATO as compared to MIA PaCa-2 cells. The high sensitivity of HCC1187 cells to toxic compounds contributed to the increased selective cytotoxicity index.

MIA PaCa-2 cells = assay: Hydrogen peroxide cell-based assay (ROS induction), MIA PaCa-2 cells; conditions: Homo sapiens, hydrogen peroxide level relative to DMSO-treated cells (100%), read-out: ROS increase, % MIA PaCa-2
Method: Cells were incubated for 2 h with either compounds (30 μM) or DMSO in a 96-well plate. After the treatment, 80 μl of cell culture medium was collected and the level of hydrogen peroxide was determined using a Hydrogen Peroxide Cell-Based Assay kit (Cayman).
Cells were incubated with the compounds for 4 h and the level of ROS induction was measured by a hydrogen peroxide cell-based assay kit. Compounds were assayed at a fixed concentration of 30 μM and the measured level of hydrogen peroxide was expressed as percentage in relation to DMSO-treated cells (100%). […] This distinction was more evident for compounds with the highest selective cytotoxicity index. […] We conclude that the selective induction of ROS in cancer cells is required but not sufficient factor for the selective anti-tumor activity.

[3] = system: Recombinant NADH/NADPH dehydrogenase; assay: NADH/NADPH dehydrogenase-mediated ROS generation assay; assay type: biochemical; conditions: 30 μM, 4 h at 37°C; for H2O2 generation, NADH/NADPH dehydrogenase -: absence of NADH/NADPH dehydrogenase; for H2O2 generation, NADH/NADPH dehydrogenase +: presence of NADH/NADPH dehydrogenase
Method: Recombinant NADH/NADPH dehydrogenase (0.5 units/well) in a 96-well plate was incubated in 100 μl of the assay buffer (50 mM potassium phosphate buffer, pH 7.5 supplemented with 1 mM EDTA) containing NADPH (3 μM) and superoxide dismutase (SOD) (100 units/well) with and without compound (30 μM) for 4 h at 37°C. At the end of incubation, the level of hydrogen peroxide was measured using a Hydrogen Peroxide Assay kit (Cayman). Control samples were without NADH/NADPH dehydrogenase. The rate of NADH/NADPH dehydrogenase- and compound-mediated ROS production was determined by subtracting values that were obtained in the absence of NADPH dehydrogenase. One unit of NADH/NADPH dehydrogenase was defined as the amount of enzyme required to reduce 1.0 μmole cytochrome C per min/mg in the presence of menadione substrate at 37°C. One unit of SOD was defined as the amount of enzyme required to inhibit reduction of cytochrome C by 50% in a coupled system with xanthine oxidase at pH 7.8 at 25°C in a 3.0 mL reaction volume. Xanthine oxidase concentration should produce an initial ΔA550 of 0.025 ± 0.005 per min.
As the next step, we examined the capability of the selected compounds to generate ROS in the presence or absence of NADH/NADPH dehydrogenase (Table 1). ROS can be generated by NADH/NADPH-dehydrogenase via the one electron reduction of a quinone ring of 1,4-NQs. Unstable half-reduced quinones (semiquinones) transfer electrons to molecular oxygen, thus generating superoxide anion radicals (O2^●-), which are converted by SOD to hydrogen peroxide. We believe that our assay measuring compound’s ability to generate H2O2 in the presence or absence of NADH/NADPH dehydrogenase more closely resembles conditions inside the cell than the assay designed to measure compound’s redox potential values. […] To determine the ability of compounds to induce ROS, compounds were incubated for 4 h at 37°C with and without NADH/NADPH-dehydrogenase in the presence of NADPH as an electron donor and SOD to convert generated superoxide radicals into hydrogen peroxide. At the end of incubation, 10-acetyl-3,7-dihydroxyphenoxazine (ADHP) and horseradish peroxidase (HRP) were added to the reaction and the level of HRP-mediated formation of the fluorogenic product, resorufin, was measured on a plate reader. ROS production was detected in reactions with either the toxic or non-toxic compounds.

human GAPDH enzyme = target: T1, human GAPDH enzyme (Homo sapiens, UniProt P04406); assay: GAPDH activity assay in MIA PaCa-2 cells; assay type: cell-based; conditions: 2 h; for remaining activity at 30 µM: read-out: GAPDH, enzyme residual activity as compared to DMSO-treated sample
T1 construct: endogenous in cells; host or cells: MIA PaCa-2 cells
Method: Cells were incubated for 2 h with either compounds (30 μM) or DMSO in a 6-well plate. Next, cells were collected in 200 μl of PBS and disrupted by sonication. Insoluble material was removed by centrifugation. The level of GAPDH activity was determined by GAPDH activity assay kit (BioVision).
As a final step, we evaluated the inhibitory activity of the selected compounds against human GAPDH enzyme in a cell-based assay using MIA PaCa-2 cells (Table 1). Cells were pre-incubated with compounds for 2 h at 37°C followed by cell lysis using sonication and GAPDH activity assay. The ability of compounds to inhibit GAPDH was expressed as percentage of GAPDH residual activity with respect to DMSO-treated cells. […] Similar to the GSR activity assay, only two of the most toxic compounds 31 and 32, were able to inhibit GAPDH by 95 and 97%, respectively.

[4] = Distribution coefficient LogD; assay type: physicochemical; conditions: pH 7.4
Source text: We conclude that the analysis of the octanol-water partitioning is not sufficient to establish a link between degree of lipophilicity and biological activities of the selected compounds.

[5] = system: human primary hepatocytes; assay: cells; conditions: Hepatocyte, read-out: EC50, μM Hepatocytes
Source text: (§1) We selected hepatocytes as normal cells because hepatocytes are mediate toxicity to multiple drugs and are used as a standard to assess toxicity of drugs in vitro [28]. […] For comparison with the standard of care, doxorubicin was also included in this analysis.

in vitro = conditions: human, primary hepatocytes
Source text: as §1

[6] = system: Complex I (bovine heart mitochondria); assay: MitoCheck Complex I activity assay; conditions: 30 μM; for Mito Check I, enzyme residual activity as compared to DMSO-treated sample: bovine heart mitochondria, NADH oxidation
Method: MitoCheck Complex I activity was determined as described in the manual of the manufacturer’s manual (Cayman). Briefly, compounds (30 μM) or DMSO were mixed with the Complex I activity assay buffer that contained bovine heart mitochondria reagent, NADH, and ubiquinone in the presence of KCN to inhibit complex IV activity. The level of Complex I activity was monitored in a kinetic assay of NADH oxidation by measuring a decrease in absorbance at 340 nm. The residual Complex I activity was calculated by dividing the rate of compound wells by the rate of DMSO wells for the linear portion of the curve.
To test possible effects of compounds on ETC, we analyzed the Complex I-mediated NADH oxidation using a MitoCheck Complex I Activity Assay Kit. The level of NADH oxidation was measured by a decrease in absorbance at 340 nm and expressed as percentage of residual activity in relation to DMSO-treated mitochondria (Table 1). […] Complex I activity was estimated by the rate of NADH oxidation which was also affected by NADH/NADPH-dehydrogenase-mediated redox cycling.

[7] = HCC1187, compound alone, unit not given in Table 1, read-out: LC50 HCC1187
[8] = octanol/water, read-out: LogD, pH = 7.4

T1 sequence (P04406 whole entry): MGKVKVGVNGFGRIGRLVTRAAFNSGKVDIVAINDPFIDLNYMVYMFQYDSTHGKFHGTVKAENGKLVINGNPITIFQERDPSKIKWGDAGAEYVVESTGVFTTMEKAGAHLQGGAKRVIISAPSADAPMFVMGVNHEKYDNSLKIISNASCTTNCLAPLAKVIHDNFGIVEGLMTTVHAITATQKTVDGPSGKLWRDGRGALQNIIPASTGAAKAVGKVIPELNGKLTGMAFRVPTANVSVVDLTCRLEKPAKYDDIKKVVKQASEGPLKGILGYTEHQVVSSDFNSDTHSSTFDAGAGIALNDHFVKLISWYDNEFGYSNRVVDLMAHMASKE

Row | SMILES | EC50 [1] [µM] | CC50 [1] [µM] | CC50 [2, 7] [µM] | activity at 30 µM (MIA PaCa-2 cells) [%] | H2O2 generation, NADH/NADPH dehydrogenase - [3] [µM] | H2O2 generation, NADH/NADPH dehydrogenase + [3] [µM] | remaining activity at 30 µM (human GAPDH enzyme) [%] | logD [4, 8] | EC50 [5] [µM] | CC50 (in vitro) [µM] | Mito Check I, enzyme residual activity as compared to DMSO-treated sample [6] [%] | reduced anti-cancer activity ([1]; versus compound 1) [fold] | inhibition of mitochondrial function (Complex I) [6] [%] | stimulation of Complex I activity [6] | Selective cytotoxicity index HCC 1187 ATO [2] | inhibition of GAPDH (human GAPDH enzyme; 30 μM) | inhibition at 30 µM (human GAPDH enzyme) [%] | improved anti-cancer activity ([1]; versus compound 49) | CC50 ([2]; HCC1187, read-out: LC50 HCC1187) [µM] | logD [4]
1 | CCCCCCCNC1=C(Cl)C(=O)c2ccccc2C1=O [compound 8] | > 90 | > 90 | 56.1 | 110 | 2.0 | 2.8 | 100 | 0.17 | 78.6 | 78.6 | 116 | – | – | – | – | – | – | – | – | –
2 | COCCNC1=C(Cl)C(=O)c2ccccc2C1=O [compound 21] | 13.8 | 13.8 | 5.2 | 254 | 6.5 | 6.4 | 100 | 0 | 60.4 | 60.4 | 104 | – | – | – | – | – | – | – | – | –
3 | O=C1C(Cl)=C(Nc2ccccc2)C(=O)c2ccccc21 [compound 39] | 3.9 | 3.9 | 1.7 | – | 1.6 | 2.8 | 93 | 0.13 | 2.3 | 2.3 | 91 | 8 | 9 | – | – | – | – | – | – | –
4 | O=C1C(Cl)=C(Nc2nccs2)C(=O)c2ccccc21 [compound 38] | > 90 | – | 20.3 | 100 | 1.9 | 2.7 | 100 | 0.1 | 26 | 26 | 105 | – | – | – | – | – | – | – | – | –
5 | O=C1C=C(SCCO)C(=O)c2ccccc21 [compound 60] | 6.2 | 6.2 | 0.6 | – | 6.9 | 12.7 | 88 | 2.99 | 3.3 | 3.3 | 212 | – | – | more than 30% | – | – | – | – | – | –
6 | COC1=C(N(C)C)C(=O)c2ccccc2C1=O [compound 53] | 23.4 | 23.4 | > 90 | 446 | 1.5 | 2.5 | 95 | 0 | > 90 | – | 51 | – | – | – | 9.5 | – | – | – | – | –
7 | CCCCC(=O)NC1=C(Cl)C(=O)c2ccccc2C1=O [compound 32] | 10.2 | 10.2 | 0.3 | 506 | 6.3 | 10.6 | 3 | 2.79 | 2.2 | 2.2 | 135 | – | – | more than 30% | – | almost completely inhibited GAPDH | 97 | – | – | –
8 | CC(C)(C)NC1=C(Cl)C(=O)c2ccccc2C1=O [compound 13] | 7.2 | 7.2 | 28.7 | 248 | 2.7 | 4.3 | 100 | 0.52 | 29.9 | 29.9 | 84 | – | – | – | – | – | – | – | – | –
9 | CCNC1=CC(=O)c2ncccc2C1=O [compound 66] | 4.5 | 4.5 | 13.2 | 626 | 5.4 | 10.3 | 93 | 2.87 | > 90 | – | 158 | – | – | more than 30% | – | – | – | more than 30 fold | – | –
10 | O=C1C(Cl)=C(NCCc2ccccc2)C(=O)c2ccccc21 [compound 36] | 16.2 | 16.2 | – | 721 | 7.0 | 6.3 | 97 | 0 | 8.8 | 8.8 | 135 | – | – | more than 30% | – | – | – | – | – | –
11 | COC1=C(N2CC2)C(=O)c2ccccc2C1=O [compound 54] | 7.5 | 7.5 | – | 675 | 2.4 | 3.9 | 73 | – | > 90 | – | 84 | – | – | – | 40.9 | – | – | – | 18.2 | 0.31
